# In US5628979A, “Reagent for tumor imaging and therapy” (Antisoma Limited, priority 1991, dated 1997):
# pIC50: −log10 of the molar value. Like-named read-outs stand apart in the source and are kept apart here. Where no end group is shown, it is not given here.
# What was measured:
# [1] = tested on: tumor associated LDV binding sites; assay: Binding to tumor associated LDV binding sites / tumor cells in vivo; transportation and clearance; set-up: species or system nude mice; settings: in words
# Description: (§1) In vivo experiments were performed in nude mice bearing HEp-2 and HT29 tumors obtained by injecting the nude mice subcutaneously in both flanks with from 2 to 5×10^6 HEp-2 and HT29 tumor cells and the tumors allowed to grow for three weeks.
# (§2) In these experiments the nude tumor bearing mice divided into five groups were each injected subcutaneously with the ^125 I-labelled peptide
# (§3) ^125 I-YGGLDVGLDVGGY (SEQ ID NO. 2).
# (§4) (SEQ ID No. 2), and the uptake of labelled peptide measured against time. For this purpose the five groups were killed at intervals of 5 minutes, 30 minutes, 1 hour, 3 hours, and 6 hours after injection. At this time the blood and tumors were separately removed, weighed and counted for radioactivity, as well as samples taken from all major organs. […] At this point peptide uptake was 10.3% id per gram in blood, 4.5% id per gram in HEp-2 tumor and 3.0% id per gram in HT29 tumor.
# VLA-4 = settings: in words; expressed in vitro by tumour cells and resting CD4+ T-cells; see Shimizu et al; cited from earlier work
# activated platelets = settings: Kloczewiak et al, cited from earlier work
# [2] = In vivo uptake of 125I-labelled peptide in blood of tumor-bearing nude mice (Experiment 2); settings: 5 minutes after subcutaneous injection; nude mice bearing HEp-2 and HT29 tumors
# Description: as §1, §2, §3, §4
# HEp-2 tumor = assay: In vivo uptake of 125I-labelled peptide in HEp-2 tumor borne by nude mice (Experiment 2); settings: 5 minutes after subcutaneous injection
# Description: as §1, §2, §3, §4
# HT29 tumor = assay: In vivo uptake of 125I-labelled peptide in HT29 tumor borne by nude mice (Experiment 2); settings: 5 minutes after subcutaneous injection
# Description: as §1, §2, §3, §4
substance,measurement,setting,value
CS1 sequence of fibronectin: 25-unit oligopeptide having the sequence SEQ ID No. 1 (DELPQLVTLPHPLLHGPEILDVPST),binding to tumor cells in vivo,[1],bind strongly to tumor cells in vivo
same,binding to VLA-4,VLA-4,known to bind to the cell adhesion molecule (CAM) VLA-4
"HHLQLLKQLLDV [synthetic dodecapeptide, analogue of the γ400-411 residue, containing the LDV triplet (Kloczewiak et al)]",pIC50,"activated platelets; Biochemistry 1989, read-out: concentration for 50% inhibition of fibrinogen binding to activated platelets",< 3.30
same,pIC50,"activated platelets; as restated, read-out: concentration necessary to obtain 50% inhibition of fibronectin binding to activated platelets",< 3.30
"^125 I-YGGLDVGLDVGGY: radio-labelled thirteen unit peptide YGGLDVGLDVGGY labelled with 125I (also: 125I radiolabel, position not given here)",peptide uptake in blood,[2],10.3 % id per gram
same,peptide uptake in HEp-2 tumor,HEp-2 tumor,4.5 % id per gram
same,peptide uptake in HT29 tumor,HT29 tumor,3.0 % id per gram
